Values quoted from earlier work as cited in patent US6673157B1, “Methods for stripping paint with DMSO containing compositions” (Gaylord Chemical Corporation, priority 2000, dated 2004).

Columns and labels:
[1] = pure substance
[2] = applied to intact human skin in vivo; abrupt fall-off below 70%
[3] = DMSO concentrations as high as 40%; living human skin

SMILES	LD50 oral rat toxicity	Rate of penetration of animal skin [1]	DMSO concentration at which it penetrates intact skin to the blood vessels [2]	Effect of DMSO on rate of skin penetration of octyl acetate [3]
C[S+](C)[O-] [DMSO, dimethyl sulfoxide]	approximately 17,400 milligrams per kilogram	approximately 176±42 g/m^2/hr	≥ 70%	did not increase the rate of skin penetration of octyl acetate
CC(=O)OC(C)(C)C [t-butyl acetate]	about 4500 mg per kilogram			
O [water, reference compound]		approximately 14.8±0.1 g/m^2/hr		
